Measured values reported in paper PMC9400670, “Establishing the selective phospholipid membrane coordination, permeation and lysis properties for a series of ‘druggable’ supramolecular self-associating antimicrobial amphiphiles” (Chemical Science, 2022).
Where two headings read alike, the source gives them in different places.

Experiments:
E. coli DH10B = assay: MIC50 determination and initial screening from OD600 growth curves, E. coli DH10B; format: cell-based, Escherichia coli; conditions: for MIC50 / inhibition at 3300 µM: Escherichia coli, 15 h; for MIC50: E. coli DH10B; for inhibition at 3300 µM: DH10B, 3.3 mM, read-out: initial antimicrobial screening, inhibition of growth, E. coli
Source text: The antimicrobial activity of SSAs 1–14 was established against both a model Gram-positive, clinically relevant methicillin resistant Staphylococcus aureus (MRSA), and a model Gram-negative, E. coli bacteria, Table 1. Here MIC50 values are given in mM to enable the derivation of molecular structure: antimicrobial efficacy: physical property relationships. […]
Data were acquired in endpoint mode. […]
Section 3: Microbial Methods
These methods were taken directly from UK Health and Security Office (UKHSA) standard operating […]
Preparation of Luria Broth media (LB): Yeast extract (5 g), tryptone (10 g) and sodium chloride (10 g) were dissolved in dH₂O (1 L) then divided into bottles and autoclaved.
Preparation of Luria Broth (LB) agar plates: Agar (6 g) was added to LB (400 mL) and autoclaved. Once cool, the LB agar was poured into sterile petri dishes under sterile conditions and allowed to set. LB plates were stored at 4 °C until use.
Preparation of bacterial plates: Sterile LB agar plates were streaked using Escherichia coli DH10B or USA300 Methicillin-Resistant Staphylococcus aureus then incubated at 37 °C overnight.
Preparation of Inoculum: An initial culture was made up by inoculating LB media (5 mL) with a single colony of bacteria under sterile conditions and incubated at 37 °C with shaking overnight. The following day, overnight bacterial cultures were subcultured into fresh LB medium to a starting OD600 […]
Preparation of 96 well microplate for screening: 20 mM solutions of each compound to be tested were made up using 5 % ethanol. The 1:100 cell suspension (150 µL) was pipetted into the wells and SSA compound solutions (30 µL) were added into each well. The final screening concentration for each compound was 3.3 mM in the well. These were incubated for 20 hours in a plate reader, with optical density readings being taken at 600 nm every 15 minutes. Optical density readings were plotted against time to produce growth curves. […]
individual wells under sterile conditions. Compounds (30 µL) were added to the wells to equal a total volume of 180 µL in the wells. Six repeats of each concentration for each compound were created each plate. The plates were sealed using parafilm, then incubated at 37°C in a microplate reader for 18-25 hours. Optical density readings were taken at 600 nm every 15 min. Data was used to generate […]
Calculation of MIC50: Growth curves were plotted using OD600 optical density readings in Microsoft ® Excel ® 2013. OD600 optical density readings 900 minutes from the start of each of these growth cultures for each concentration of compound were plotted in Origin ® 2015. The resultant curve was normalized and fitted using the Boltzmann fit to define the MIC50 values for each compound.

PE:PG mix nanodiscs = assay: Phospholipid nanodisc 1H NMR CPMG coordination assay, PE:PG mix nanodiscs; format: binding; conditions: SSA 100 µM
Source text: (§1) Finally, to establish how any single SSA structural variation affects the coordination of an individual salt component to the surface of a phospholipid membrane, the binding of the anionic and cationic components of SSAs 5–12 with nanodiscs comprised of PC, PG or the PE : PG mix (Table 2) was studied. Nanodiscs were synthesised from synthetic vesicles of the relevant phospholipid composition. For full synthetic procedures and nanodisc characterisation please see ESI (Section 13). ^†[34,35]
(§2) Styrene-maleic acid (SMA) nanodiscs are small biomimetic scaffolds with a hydrodynamic diameter ≈ 10 nm. They consist of a single disc-shaped planar phospholipid bilayer, ‘belted’ in this instance with a synthetic SMA co-polymer. Here nanodiscs of a specific phospholipid composition were titrated against a solution of SSAs 5–12 (0.10 mM) in a sodium phosphate buffer (20 mM) with NaCl (20 mM) at pH 7.4. This solution was supplemented with 5% D2O, to enable NMR locking and 4,4-dimethyl4-silapentane-1-sulfonic acid (DSS – 0.02 mM) to act as an internal standard. The nanodiscs were then titrated against the SSA, while the SSA concentration was maintained as constant, well below the CMC (Table 3).[38] A 1D ^1H NMR with a Carr–Purcell–Meiboom–Gill sequence (CPMG) filter (300 ms),[36,48] modified with a watergate element was then obtained for each experimental data point. The watergate element was used to allow suppression of the water signal, whereas the CPMG filter enabled the suppression of those resonances from molecular species with long correlation times, which in this instance correlate to the signals of those SSAs coordinated to the nanodisc, rather than those which exist as free species in solution. Comparative integration of the resonances corresponding to the SSA cation or anion, standardised against the DSS internal standard, permits the percentage of the individual SSA components coordinated to the phospholipid nanodisc to be established with respect to increasing nanodisc concentration.
(§3) However, when considering the 1/EC50 for the SSA cationic component (Fig. 10b), the reverse is true. This is perhaps expected, but nevertheless despite the identical experimental conditions, including the same TBA counter cation across SSAs 5–12, there is a marked difference in the 1/EC50 obtained, where the only difference is the SSA anion present. This is most noticeable for the series of SSA titrations involving the PE : PG mix (Table 2) nanodiscs. The only variation within this set of titrations is the structure of the SSA anion; we therefore conclude that the SSA anion is influencing SSA cation nanodisc coordination events. This observation provides evidence for the presence of further complex interactions informing SSA:nanodisc coordination processes. […]
(§4) Data were acquired in endpoint mode. All experiments were repeated in triplicate […]
(§5) Nanodisc preparation: Lipid films were resuspended in Buffer (20 mM NaCl, 20 mM NaH 2PO4, pH 7.4) and sonicated for 1 hour, at a 5:1 ratio, SMA was added and incubated at 37 °C for 1 hour. Dialysed overnight in 5 L of the same buffer in 10 KDa cut-off dialysis tubing, concentrated, and underwent gel filtration size exclusion chromatography on a Superdex 200 10/300 GL column (GE Healthcare) in the same buffer, whilst monitoring absorbance at 260 nm. Nanodisc quantification carried out via monitoring of absorbance at 260 nm using a calibration curve.2
(§6) 1H NMR CPMG: 1H NMR CPMG3,4 spectra were obtained with a Bruker Avance III […] spectrometer equipped with a TCIP cryoprobe at 298 K. Samples were supplemented with 5 % D 2O and 0.02 mM 4,4-dimethyl4-silapentane-1-sulfonic acid (DSS). The standard zgprcpmg pulse sequence from the Bruker library was modified with a watergate element to allow suppressi on of the water signal and was used for all experiments. Although this sequence is readily obtainable, we are happy to provide it on request. The P1 pulses were 9 µs at a power of 7.9 W. Presaturation was applied between […]

PG nanodiscs = assay: Phospholipid nanodisc 1H NMR CPMG coordination assay, PG nanodiscs; format: binding; conditions: SSA 100 µM
Source text: as §1, §2, §3, §4, §5, §6

[1] = Table S3, conversion of the mM values of Table 1, after 900 mins
[2] = concentration of nanodisc coordinating 50 % of the SSA anion, Hill Plot fit, Vmax fixed 100 %, read-out: EC50 PE:PG mix, anionic SSA component
[3] = concentration of nanodisc coordinating 50 % of the SSA cation, Hill Plot fit, Vmax fixed 100 %, read-out: EC50 PE:PG mix, cationic SSA component
[4] = concentration of nanodisc coordinating 50 % of the SSA anion, Hill Plot fit, Vmax fixed 100 %, read-out: EC50 PG, anionic SSA component
[5] = concentration of nanodisc coordinating 50 % of the SSA cation, Hill Plot fit, Vmax fixed 100 %, read-out: EC50 PG, cationic SSA component
[6] = n = 3, 0.5 McFarland standard, after 900 min, number in bracket = efficacy rank

MIC50 (E. coli DH10B; [1])	EC50 (PE:PG mix nanodiscs; [2])	EC50 (PE:PG mix nanodiscs; [3])	EC50 (PG nanodiscs; [4])	EC50 (PG nanodiscs; [5])	MIC50 (E. coli DH10B; [6])	EC50 (PG nanodiscs; experimental endpoint 4.00 µM nanodisc, read-out: EC50 PG, cationic SSA component)	EC50 (PE:PG mix nanodiscs; experimental endpoint 4.00 µM nanodisc, read-out: EC50 PE:PG mix, cationic SSA component)	Structure (SMILES)	inhibition at 3300 µM (E. coli DH10B; after 900 min)	initial antimicrobial screening outcome, E. coli (E. coli DH10B; Table S3, screening at 3.3 mM)
840 mg/L	–	–	–	–	–	–	–	O=C(NCCCS(=O)(=O)O)Nc1ccc(C(F)(F)F)cc1 [SSA 2]	–	–
–	0.26 µM	0.37 µM	0.29 µM	0.9 µM	–	–	–	Cc1ccc2nc(-c3ccc(NC(=S)NCS(=O)(=O)O)cc3)sc2c1 [SSA 12]	< 10%	–
1370 mg/L	0.73 µM	–	1.07 µM	2.69 µM	2160 µM	–	–	Cc1ccc2nc(-c3ccc(NC(=O)NCCC(=O)O)cc3)sc2c1 [SSA 9]	–	–
2160 mg/L	1.14 µM	0.93 µM	–	–	–	> 4 µM	–	O=C(NCS(=O)(=O)O)Nc1ccccc1-c1nc2ccccc2s1 [SSA 5]	–	–
3110 mg/L	0.46 µM	–	0.82 µM	2.86 µM	–	–	> 4 µM	Cc1ccc2nc(-c3ccc(NC(=O)NCS(=O)(=O)O)cc3)sc2c1 [SSA 6]	–	–
750 mg/L	0.5 µM	2.92 µM	0.5 µM	1.16 µM	1160 µM	–	–	Cc1ccc2nc(-c3ccc(NC(=O)NCCCS(=O)(=O)O)cc3)sc2c1 [SSA 10]	–	–
–	0.72 µM	2.51 µM	2.1 µM	2.82 µM	–	–	–	Cc1ccc2nc(-c3ccc(NC(=O)NCC(=O)O)cc3)sc2c1 [SSA 11]	–	–
2210 mg/L	2.2 µM	–	–	3.11 µM	3660 µM	–	–	O=C(NCS(=O)(=O)O)Nc1ccc(-c2nc3ccccc3s2)cc1 [SSA 8]	–	–
–	–	3.44 µM	–	3.42 µM	–	–	–	Cc1ccc2nc(NC(=O)NCS(=O)(=O)O)sc2c1 [SSA 7]	< 10%	Fail
630 mg/L	–	–	–	–	–	–	–	O=C(O)CNC(=O)Nc1ccc(C(F)(F)F)cc1 [SSA 4]	–	–
2080 mg/L	–	–	–	–	–	–	–	O=C(NCS(=O)(=O)O)Nc1ccc(C(F)(F)F)cc1 [SSA 1]	–	–
